Experimental data: PMC6826492, “Experimental and Computational Study of the Antioxidative Potential of Novel Nitro and Amino Substituted Benzimidazole/Benzothiazole-2-Carboxamides with Antiproliferative Activity” (Antioxidants, 2019)
Counter-ions that a name gives are not always drawn. Like-named read-outs stand apart in the source and are kept apart here.

Assays:
[1] = Ferric reducing/antioxidant power (FRAP assay); assay type: biochemical; set-up: key to FRAP: –: Very low activity; conditions: means ± standard deviation; absorbance at 593 nm
Procedure: The FRAP method was carried out according to previously described procedures with some modifications to be compatible with an assay on a 96-well microplate. All tests were done in triplicate, while the obtained results were averaged and reported as Fe^2+ equivalents (Fe^2+ µmol).
By using the FRAP assay, we investigated the reducing power of investigated systems, which was monitored by the corresponding changes in the absorbance at 593 nm. This method is based on the ability of systems to reduce the ferric tripyridyl triazine complex (TPTZ) to the ferrous state (Fe^2+), which can be seen by an intense blue color. […] Good reducing ability was shown by the trimethoxy substituted benzimidazole-2-carboxamide 14 bearing the amino group (1102.5 ± 14.1 mmolFe^2+/mmolC).

[2] = DPPH free radical scavenging; assay type: biochemical; set-up: key to DPPH IC50: –: Very low activity; conditions: after 30 min of incubation with 100 μM DPPH
Procedure: The reducing activity of investigated systems was achieved by the DPPH method according to previously described procedures with modifications to assure the use in a 96-well microplate. Briefly, equal volumes of various concentrations of tested molecules (dissolved in DMSO) were added to the solution of DPPH (final concentration 50 µM in absolute ethanol). Ethanol and DMSO were used as control solutions in line with earlier reports.

MCF-7 (breast carcinoma) = experiment: Antiproliferative activity in vitro (MTT assay); assay type: cell-based, human; conditions: 72 h incubation, concentration that causes 50% growth inhibition
Procedure: (§1) The experiments were performed on four human cell lines, including HCT 116 (colon carcinoma), H 460 (lung carcinoma), MCF-7 (breast carcinoma), and HEK 293 (human embryonic kidney cells), in line with previously published experimental procedures. Briefly, the cells were grown in DMEM medium with the addition of 10% fetal bovine serum (FBS), 2 mM L-glutamine, 100 U/mL penicillin, and 100 µg/mL streptomycin, and cultured as monolayers at 37 °C in a humidified atmosphere with 5% CO2. Cells were seeded at 2 × 10^3 cells/well in a standard 96-well microtiter plates and left to attach for 24 h. The next day, a test compound was added in five serial 10-fold dilutions. The rate of cell growth was evaluated after 72 h of incubation with MTT assays. The obtained results are expressed as IC50 values, calculated from the concentration-response curve using linear regression analysis by fitting the test concentrations that give PG values above and below the reference value (i.e., 50%). Each test was performed in quadruplicate in at least two individual experiments.

[3] = tested on: HCT 116 (colon carcinoma); experiment: Antiproliferative activity in vitro (MTT assay); assay type: cell-based, human; conditions: 72 h incubation, concentration that causes 50% growth inhibition, read-out: IC50 HCT116
Procedure: as §1

H 460 (lung carcinoma) = experiment: Antiproliferative activity in vitro (MTT assay); assay type: cell-based, human; conditions: 72 h incubation, concentration that causes 50% growth inhibition
Procedure: as §1

[4] = cited from earlier work; for BDE: monocationic, in acetonitrile ref 39; for N–H BDE: in water ref 48
[5] = tested on: HEK 293 (human embryonic kidney cells); experiment: Cytotoxic activity on non-cancerous cells (MTT assay); assay type: cell-based; conditions: non-tumor cell line, 72 h incubation, MTT, concentration that causes 50% growth inhibition
Procedure: as §1

| Structure (SMILES) | IC50 [2] | IC50 (MCF-7 (breast carcinoma); Homo sapiens, MCF7, 72 h) | IC50 ([3]; Homo sapiens, HCT-116, 72 h) | IC50 (H 460 (lung carcinoma); Homo sapiens, NCI-H460, 72 h) | DPPH IC50 [2] | FRAP [1] | also measured |
| --- | --- | --- | --- | --- | --- | --- | --- |
| Nc1ccc2nc(NC(=O)c3ccccc3O)[nH]c2c1 [Compound 30, N-[5(6)-aminobenzimidazol-2-yl]-2-hydroxybenzamide] | 42.5 ± 0.5 µM | 30 ± 0.8 µM | 46 ± 0.2 µM | > 100 µM |  | 272.6 ± 7.1 mmolFe^2+/mmolC |  |
| NC1CCCCC1 [c-C6H11–NH3^+] |  |  |  |  |  |  | BDE [4]: 113.6 kcal/mol |
| COc1ccccc1C(=O)Nc1nc2ccc([N+](=O)[O-])cc2[nH]1 [Compound 6, 2-methoxy-N-[5(6)-nitrobenzimidazol-2-yl]benzamide] |  | 4 ± 0.3 µM | 6 ± 1 µM | 6 ± 5 µM | – ^c | 123.5 ± 2.8 mmolFe^2+/mmolC | IC50 ([5]; Homo sapiens, HEK293): 3 ± 0.6 µM |
| Nc1ccccc1 [Ph–NH3^+] |  |  |  |  |  |  | BDE [4]: 84.9 kcal/mol |
| COc1cc(C(=O)Nc2nc3ccc(N)cc3s2)cc(OC)c1OC.Cl [Compound 23, N-(6-aminobenzothiazol-2-yl)-3,4,5-trimethoxybenzamide hydrochloride] | 1.5 ± 0.5 µM |  |  |  |  | 241.3 ± 1.6 mmolFe^2+/mmolC | IC50 [3]: 50 ± 11 µM; IC50 (H 460 (lung carcinoma)): 34 ± 9 µM |
| Nc1ccccc1 [aniline] |  |  |  |  |  |  | N–H BDE [4]: 89.1 kcal/mol |
| COc1ccc(N)cc1 [4-OMe-aniline] |  |  |  |  |  |  | N–H BDE [4]: 87.2 kcal/mol |
| COc1ccccc1C(=O)Nc1nc2ccc(N)cc2[nH]1 [Compound 18, N-[5(6)-aminobenzimidazol-2-yl]-2-methoxybenzamide hydrochloride] | 9.85 ± 0.003 µM |  |  |  |  | 267.2 ± 5.0 mmolFe^2+/mmolC | IC50 (MCF-7 (breast carcinoma)): 23 ± 2 µM; IC50 [3]: 33 ± 7 µM; IC50 (H 460 (lung carcinoma)): 36 ± 8 µM |
| N#Cc1ccc(N)cc1 [Compound 4-CN-aniline, 4-CN-aniline] |  |  |  |  |  |  | N–H BDE [4]: 91.8 kcal/mol |
| CN [Me–NH3^+] |  |  |  |  |  |  | BDE [4]: 114.6 kcal/mol |
| COc1cc(C(=O)Nc2nc3ccc([N+](=O)[O-])cc3s2)cc(OC)c1OC [Compound 11, 3,4,5-trimethoxy-N-(6-nitrobenzothiazol-2-yl)benzamide] |  | 17 ± 9 µM | 37 ± 0.8 µM | 23 ± 4 µM | – | 155.5 ± 3.0 mmolFe^2+/mmolC |  |
| COc1ccc(C(=O)Nc2nc3ccc(N)cc3s2)c(OC)c1 [Compound 16, N-(6-aminobenzothiazol-2-yl)-2,4-dimethoxybenzamide] |  | 5 ± 0.3 µM | 6 ± 1 µM | 43 ± 29 µM | – | 203.6 ± 5.8 mmolFe^2+/mmolC | IC50 ([5]; Homo sapiens, HEK293): 11 ± 8 µM |
| COc1ccc(C(=O)Nc2nc3ccc(N)cc3[nH]2)c(O)c1 [Compound 32, N-[5(6)-aminobenzimidazol-2-yl]-2-hydroxy-4-methoxybenzamide] | 29.5 ± 0.1 µM |  |  |  |  | 304.3 ± 6.4 mmolFe^2+/mmolC | IC50 (MCF-7 (breast carcinoma)): 80 ± 4 µM; IC50 [3]: 50 ± 13 µM; IC50 (H 460 (lung carcinoma)): ≥ 100 µM |

More lines, main results first:

| IC50 [2] | IC50 (MCF-7 (breast carcinoma); Homo sapiens, MCF7, 72 h) | IC50 ([3]; Homo sapiens, HCT-116, 72 h) | IC50 (H 460 (lung carcinoma); Homo sapiens, NCI-H460, 72 h) | DPPH IC50 [2] | Structure (SMILES) | FRAP [1] | also measured |
| --- | --- | --- | --- | --- | --- | --- | --- |
|  | 1 ± 0.7 µM | 5 ± 2 µM | 0.1 ± 0.04 µM |  | COc1cc([C@@H]2c3cc4c(cc3[C@@H](O[C@@H]3O[C@@H]5CO[C@@H](C)O[C@H]5[C@H](O)[C@H]3O)[C@H]3COC(=O)[C@H]23)OCO4)cc(OC)c1O [Etoposide, reference compound] |  | IC50 ([5]; Homo sapiens, HEK293): 1.6 ± 0.4 µM |
|  | 3 ± 2 µM | 6 ± 4 µM | 3 ± 0.9 µM | – | COc1ccccc1C(=O)Nc1nc2ccc(N)cc2s1 [Compound 15, N-(6-aminobenzothiazol-2-yl)-2-methoxybenzamide] | 163.4 ± 4.7 mmolFe^2+/mmolC |  |
| 40.4 ± 0.4 µM |  | 28 ± 4 µM |  |  | COc1cc(C(=O)Nc2nc3ccc(N)cc3s2)cc(OC)c1OC [Compound 17, N-(6-aminobenzothiazol-2-yl)-3,4,5-trimethoxybenzamide] | 235.4 ± 2.8 mmolFe^2+/mmolC | IC50 (MCF-7 (breast carcinoma)): 5 ± 3 µM; IC50 (H 460 (lung carcinoma)): ≥ 100 µM |
|  | 42 ± 7 µM | 61 ± 0.1 µM | 42 ± 20 µM | – | O=C(Nc1nc2ccc([N+](=O)[O-])cc2[nH]1)c1ccccc1O [Compound 24, 2-hydroxy-N-[5(6)-nitrobenzimidazol-2-yl]benzamide] | 39.1 ± 2.0 mmolFe^2+/mmolC |  |
| 4 ± 0.04 µM |  |  |  |  | COc1ccc(C(=O)Nc2nc3ccc(N)cc3s2)c(OC)c1.Cl [Compound 22, N-(6-aminobenzothiazol-2-yl)-2,4-dimethoxybenzamide hydrochloride] | 244.2 ± 3.0 mmolFe^2+/mmolC | IC50 [5]: 11 ± 1 µM; IC50 (MCF-7 (breast carcinoma)): 3 ± 0.2 µM; IC50 [3]: 8 ± 2 µM; IC50 (H 460 (lung carcinoma)): 50 ± 8 µM |
| 9.2 ± 0.6 µM | ≥ 100 µM | 37 ± 7 µM | 75 ± 27 µM |  | COc1ccc(C(=O)Nc2nc3ccc(N)cc3[nH]2)c(O)c1 [Compound 31, N-[5(6)-aminobenzimidazol-2-yl]-2-hydroxy-4-methoxybenzamide] | 258.4 ± 6.4 mmolFe^2+/mmolC |  |
|  | 10 ± 8 µM | 7 ± 0.4 µM | 8 ± 1 µM | – | COc1ccc(C(=O)Nc2nc3ccc([N+](=O)[O-])cc3s2)c(O)c1 [Compound 28, 2-hydroxy-4-methoxy-N-(6-nitrobenzothiazol-2-yl)benzamide] | 39.8 ± 1.6 mmolFe^2+/mmolC | IC50 ([5]; Homo sapiens, HEK293): 4 ± 2 µM |
|  | 2 ± 0.9 µM | 3 ± 0.2 µM | 4 ± 2 µM | – | COc1ccc(C(=O)Nc2nc3ccc([N+](=O)[O-])cc3[nH]2)c(OC)c1 [Compound 7, 2,4-dimethoxy-N-[5(6)-nitrobenzimidazol-2-yl]benzamide] | 139.6 ± 16.9 mmolFe^2+/mmolC | IC50 ([5]; Homo sapiens, HEK293): 2 ± 0.3 µM |
| 8.06 ± 0.03 µM | 34 ± 30 µM | ≥ 100 µM | > 100 µM |  | COc1cc(C(=O)Nc2nc3cc(N)ccc3[nH]2)cc(OC)c1OC.Cl [Compound 20, N-(6-aminobenzimidazol-2-yl)-3,4,5-trimethoxybenzamide hydrochloride] | 267.4 ± 1.4 mmolFe^2+/mmolC |  |
| 17.7 ± 2.81 µM | 20 ± 4 µM |  |  |  | COc1ccc(C(=O)Nc2nc3ccc(N)cc3[nH]2)c(OC)c1 [Compound 13, N-[5(6)-aminobenzimidazol-2-yl]-2,4-dimethoxybenzamide] | 238.4 ± 2.1 mmolFe^2+/mmolC | IC50 [3]: 17 ± 8 µM; IC50 (H 460 (lung carcinoma)): 24 ± 8 µM |
| 13.3 ± 0.8 µM |  |  |  |  | COc1ccc(C(=O)Nc2nc3ccc(N)cc3[nH]2)c(OC)c1 [Compound 19, N-[5(6)-aminobenzimidazol-2-yl]-2,4-dimethoxybenzamide hydrochloride] | 259.1 ± 0.6 mmolFe^2+/mmolC | IC50 (MCF-7 (breast carcinoma)): 34 ± 24 µM; IC50 [3]: ≥ 100 µM; IC50 (H 460 (lung carcinoma)): > 100 µM |
| 28.9 ± 1.03 µM |  | 48 ± 4 µM | 39 ± 11 µM |  | COc1ccccc1C(=O)Nc1nc2ccc(N)cc2[nH]1 [Compound 12, N-[5(6)-aminobenzimidazol-2-yl]-2-methoxybenzamide] | 256.3 ± 2.8 mmolFe^2+/mmolC | IC50 (MCF-7 (breast carcinoma)): 53 ± 9 µM |
|  | 28 ± 6 µM | 31 ± 4 µM | 18 ± 0.01 µM | – | COc1ccc(C(=O)Nc2nc3ccc([N+](=O)[O-])cc3[nH]2)c(O)c1 [Compound 25, 2-hydroxy-4-methoxy-N-[5(6)-nitrobenzimidazol-2-yl]benzamide] | 150.4 ± 3.4 mmolFe^2+/mmolC |  |
|  | 5 ± 2 µM | 9 ± 7 µM | 20 ± 3 µM | – | COc1ccc(C(=O)Nc2nc3ccc([N+](=O)[O-])cc3s2)c(OC)c1 [Compound 10, 2,4-dimethoxy-N-(6-nitrobenzothiazol-2-yl)benzamide] | – | IC50 ([5]; Homo sapiens, HEK293): 5 ± 1 µM |
|  | 2 ± 0.6 µM | 6 ± 1 µM | 3 ± 0.2 µM | – | O=C(Nc1nc2ccc([N+](=O)[O-])cc2s1)c1ccccc1O [Compound 27, 2-hydroxy-N-(6-nitrobenzothiazol-2-yl)benzamide] | – | IC50 ([5]; Homo sapiens, HEK293): 3 ± 1 µM |
|  | 9 ± 1 µM | 44 ± 25 µM | 46 ± 3 µM | – | COc1ccccc1C(=O)Nc1nc2ccc([N+](=O)[O-])cc2s1 [Compound 9, 2-methoxy-N-(6-nitrobenzothiazol-2-yl)benzamide] | 6.7 ± 0.6 mmolFe^2+/mmolC |  |
